Among the test systems are Malme-3M; PC-3; HCC 2998; OVCAR-4; NCI-H460; UO-31; UACC-257; UACC-62; SF-295; CAKI-1; SF-539; K562; SK-MEL-2; 786-0; KM12; HL-60; SK-OV-3; M14.
What all share (test): NCI anticancer screen, dose series, 48 h

Experimental findings from ChEMBL document CHEMBL1201862, “PubChem BioAssay data set” (2004) are described below.

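In this assay, cells in 96-well plates receive the compound at five concentrations for 48 hours. Endpoints are linearly interpolated between the surrounding concentrations. GI50 = concentration required for 50% inhibition of growth.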 Calls of active or inactive are those of the source. No stated cut-off is given here; in the data, active = GI50 up to about 1.1 µM and inactive = higher.

As to `S=C1/C(=N/c2ccccc2)N(c2ccccc2)/C(=N\c2ccccn2)N1c1ccccc1`, the GI50 was 16.9 µM (inactive) in the experiment with Malme-3M; 12.8 µM (inactive) with PC-3; 14.1 µM (inactive) in the experiment with HCC 2998; 14.6 µM (inactive) in the experiment on OVCAR-4; 13.6 µM (inactive) in the experiment with NCI-H460; 13.3 µM (inactive) in the experiment with UO-31. Besides, the GI50 was 14.3 µM (inactive) in the experiment on UACC-257; 2.77 µM (inactive) with UACC-62; 16.3 µM (inactive) with SF-295; 15.5 µM (inactive) with CAKI-1; < 0.01 µM (active) in the experiment on SF-539; > 100 µM (inactive) in the experiment on K562. Besides, the GI50 with SK-MEL-2 was 11.9 µM (inactive); in the experiment with 786-0 it was 14.5 µM (inactive); in the experiment on KM12, 12.9 µM (inactive); with HL-60, > 100 µM (inactive); in the experiment with SK-OV-3, 19.9 µM (inactive).

Regarding `Cn1c(S)nc2c(Cl)cc(Cl)cc2c1=O`, the GI50 in the experiment with PC-3 was > 100 µM (inactive); in the experiment with HCC 2998, > 100 µM (inactive); in the experiment with M14 it was > 100 µM (inactive); in the experiment with OVCAR-4 it was > 100 µM (inactive); in the experiment on NCI-H460, > 100 µM (inactive); in the experiment with UO-31, 64 µM (inactive). In addition, the GI50 in the experiment with UACC-257 was > 100 µM (inactive); in the experiment with UACC-62 it was > 100 µM (inactive); with SF-295, > 100 µM (inactive); in the experiment on CAKI-1 it was 67.9 µM (inactive); with SF-539 it was 42.8 µM (inactive); in the experiment with SK-MEL-2, > 100 µM (inactive). For the same compound, the GI50 was > 100 µM (inactive) in the experiment on 786-0, > 100 µM (inactive) in the experiment with KM12, 18.2 µM (inactive) with HL-60 and 74 µM (inactive) in the experiment with SK-OV-3.

On to `CCN(CC)CCO/N=C1\CC[C@H]2[C@@H]3CC=C4C[C@@H](O)CC[C@]4(C)[C@H]3CC[C@]12C`, for which the GI50 in the experiment on Malme-3M is 16.1 µM (inactive); in the experiment on PC-3 it was 19 µM (inactive); in the experiment on HCC 2998, 16.9 µM (inactive); in the experiment on OVCAR-4, 25.5 µM (inactive); in the experiment on NCI-H460, 14.9 µM (inactive); in the experiment with UO-31 it was 15.8 µM (inactive). For the same compound, the GI50 was 16.7 µM (inactive) in the experiment with UACC-257; 16.9 µM (inactive) in the experiment on UACC-62; 19.5 µM (inactive) in the experiment with SF-295; 14.5 µM (inactive) in the experiment with CAKI-1; 13.6 µM (inactive) in the experiment on SF-539; 7.98 µM (inactive) in the experiment with K562. The GI50 with SK-MEL-2 is 23.3 µM (inactive); in the experiment on 786-0, 17.3 µM (inactive); in the experiment on KM12, 17.8 µM (inactive); in the experiment with HL-60, 9.77 µM (inactive).

In the case of `N=C(c1ccc2ccccc2c1)c1ccccc1Cc1ccccc1`, the GI50 with PC-3 was 51.6 µM (inactive); with HCC 2998, 31.8 µM (inactive); in the experiment on M14, 58.1 µM (inactive); in the experiment on OVCAR-4, 34.7 µM (inactive); in the experiment on NCI-H460 it was 33.6 µM (inactive); in the experiment with UO-31 it was 33.4 µM (inactive). The GI50 was 52.6 µM (inactive) in the experiment on UACC-257; 43.3 µM (inactive) with UACC-62; 32.2 µM (inactive) in the experiment on SF-295; 55 µM (inactive) in the experiment on CAKI-1; 41.5 µM (inactive) in the experiment with SF-539; 29.9 µM (inactive) in the experiment with K562. The GI50 was 18.2 µM (inactive) in the experiment with SK-MEL-2; 54.6 µM (inactive) in the experiment on 786-0; 25.2 µM (inactive) with KM12; 27.5 µM (inactive) in the experiment with HL-60; 43 µM (inactive) in the experiment with SK-OV-3.

As to `CC1=C2c3c(C)ccc4ccc(C)c(c34)C2(O)C(C)C1=O` (centres undefined), the GI50 in the experiment with PC-3 is 32.7 µM (inactive); with HCC 2998 it was > 100 µM (inactive); in the experiment on M14, 62.2 µM (inactive); in the experiment on OVCAR-4, 65 µM (inactive); with NCI-H460, 60.1 µM (inactive); in the experiment with UO-31 it was 21.3 µM (inactive). Moreover, the GI50 was 53.8 µM (inactive) in the experiment with UACC-257; 35.8 µM (inactive) in the experiment with UACC-62; 52.1 µM (inactive) with CAKI-1; > 100 µM (inactive) in the experiment on SF-539; 49.5 µM (inactive) in the experiment with K562; > 100 µM (inactive) with SK-MEL-2. In addition, the GI50 in the experiment with 786-0 is 51.2 µM (inactive); in the experiment on KM12, 41.3 µM (inactive); with HL-60, 28.2 µM (inactive); with SK-OV-3, 52.7 µM (inactive).

Regarding `Cc1n[nH]c(C(F)(F)F)c1/N=N/N(C)C`, the GI50 with Malme-3M is 16.6 µM (inactive); with PC-3, 11.1 µM (inactive); in the experiment with HCC 2998 it was 14 µM (inactive); with M14, 14.7 µM (inactive); in the experiment on NCI-H460, 10.5 µM (inactive); with UO-31 it was 1.61 µM (inactive). In addition, the GI50 in the experiment with UACC-257 was 14.7 µM (inactive); with UACC-62 it was 6.81 µM (inactive); with SF-295, 12.1 µM (inactive); in the experiment with CAKI-1 it was 1.64 µM (inactive); in the experiment on SF-539, 5.28 µM (inactive); with K562, 2.93 µM (inactive). The GI50 is 17.2 µM (inactive) in the experiment with SK-MEL-2; 1.24 µM (inactive) in the experiment with 786-0; 7.57 µM (inactive) in the experiment on KM12; 12.6 µM (inactive) in the experiment with HL-60; 12.5 µM (inactive) in the experiment on SK-OV-3.

Turning to `CN(Cc1ccccc1)c1cc(=O)n(C)c(=O)[nH]1`, the GI50 in the experiment on Malme-3M, with PC-3, in the experiment on HCC 2998, with M14, in the experiment on OVCAR-4 and in the experiment with NCI-H460 was > 100 µM (inactive) throughout. For the same compound, the GI50 with UO-31, with UACC-257, in the experiment with UACC-62, in the experiment on SF-295, in the experiment on CAKI-1 and in the experiment on SF-539 was > 100 µM (inactive) each time. Also, the GI50 in the experiment with K562, in the experiment with SK-MEL-2, in the experiment with 786-0, with HL-60 and in the experiment with SK-OV-3 was > 100 µM (inactive) throughout.

With `Cc1ccc(C(=O)Cn2c(C(=O)/C=C/c3cccs3)nc3ccccc32)cc1`, the GI50 is 24.5 µM (inactive) in the experiment with Malme-3M; 28.6 µM (inactive) with PC-3; 21 µM (inactive) in the experiment with HCC 2998; 49.9 µM (inactive) in the experiment with M14; 29.5 µM (inactive) in the experiment on OVCAR-4; 22.4 µM (inactive) with NCI-H460. The GI50 in the experiment on UO-31 is 62.8 µM (inactive); in the experiment on UACC-257 it was 24.4 µM (inactive); with UACC-62, 87.1 µM (inactive); with SF-539, > 100 µM (inactive); in the experiment on K562 it was 25.8 µM (inactive); in the experiment with SK-MEL-2, 12.6 µM (inactive). Further, the GI50 in the experiment with 786-0 was 45.5 µM (inactive); in the experiment with KM12 it was 24.2 µM (inactive); with HL-60 it was 22.7 µM (inactive); in the experiment on SK-OV-3, > 100 µM (inactive).

In the case of `CCc1nc(N)nc(N)c1-c1ccc(Cl)c(Cl)c1` [ETOPRINE], the GI50 was 5.79 µM (inactive) with Malme-3M; 34.5 µM (inactive) in the experiment with PC-3; 12.4 µM (inactive) with HCC 2998; 0.675 µM (active) in the experiment on M14; > 100 µM (inactive) with OVCAR-4; 0.506 µM (active) with NCI-H460. Also, the GI50 in the experiment on UO-31 was 2.52 µM (inactive); in the experiment with UACC-257, 8.38 µM (inactive); in the experiment with UACC-62, 0.711 µM (active); with SF-295 it was 0.738 µM (active); in the experiment with CAKI-1, 32 µM (inactive); in the experiment on SF-539, 5.16 µM (inactive). The GI50 in the experiment with SK-MEL-2 was 23.4 µM (inactive); in the experiment on 786-0 it was 0.653 µM (active); with KM12 it was 8.51 µM (inactive); in the experiment with HL-60 it was > 100 µM (inactive); in the experiment with SK-OV-3, > 100 µM (inactive).
